# Data published in US9579364B2, “Methods for treating benign prostatic hypertrophy (BPH)” (New York University, priority 2002, dated 2017).
# “And” between values parts separate entries of the source, which are not always exact repeats. Equal values may be shown once. Numbered stars: 1 amine (or outer) side, 2 acyl side, 3 side chain; on linkers, the order of the positions; unused ones are H or OH. Square brackets hold non-standard residues; d marks the D form. Side chains are listed from the residue outwards. Peptide text beside a SMILES is read from it. * marks the point of attachment. Ethylenediamine = C(CN[*:2])N[*:1]; Hyp = O=C(O)[C@@H]1C[C@@H](O)CN1; Phg = N[C@H](C(=O)O)c1ccccc1; CO = O=C([*:1])[*:2]; Bn = c1ccc(C*)cc1
# Tests used:
# [1] = tested on: prostate of intact 28 day old male mice; experiment: PQ401 or SS14 treatment of intact 28 day old male mice: prostate; type: in vivo
# Experimental: To examine further the effect of various compounds on glandular and fibromuscular development of the prostate, somatostatin-14 (SS14, a native somatostatin) and an exemplary small molecule IGF-I receptor inhibitor PQ401 were assessed in a variety of animal models.
# (§1) In a first experimental approach, the effect of treatment of intact 28 day old male mice with vehicle or PQ401 (a small molecule IGF-I receptor specific inhibitor) or somatostatin-14 (SS14; a native somatostatin) was evaluated. PQ401 and SS14 inhibit IGF-I action. For these experiments, N=5 mice per group. The results of these experiments are presented below in Tables 7-10: […]
# [2] = PQ401 or SS14 treatment of intact 28 day old male mice: body weight; type: in vivo
# Experimental: as §1
# [3] = tested on: prostate of estradiol-treated male Wistar rats; experiment: Estradiol-treated male Wistar rat model of BPH; type: in vivo; conditions: for mean gland size: difference not significant
# Excerpt: To evaluate further the efficacy of somatostatin 14 (SS-14) in the treatment of BPH and related urinary tract obstruction, the present inventors used an animal model system in which prostate hyperplasia, together with prostatitis is induced by administration of estradiol to male Wistar rats. The estradiol-treated Wistar rat animal model system was originally described by Robinette (1988, The Prostate 12:271-286; the content of which is incorporated herein in its entirety) as offering an animal model of the inflammation and fibromuscular growth observed in human BPH. Robinette also described the estradiol-treated Wistar rat animal model system as useful for identifying factors and/or xenobiotics that can inhibit or potentially reverse progression of prostatic fibromuscular proliferation. Wilson et al. (Exp Mol Pathol. 2004; 77:7-17; the content of which is incorporated herein in its entirety) also presented guidance pertaining to the estradiol-treated Wistar rat animal model system of Robinette, offering that chronic inflammation induced in the lateral prostate by estrogen treatment is accompanied later by fibromuscular proliferation, which correlates with the prevalence of chronic inflammation in BPH in men. To assay the therapeutic benefit of IGF-I inhibitors in an animal model system, the present inventors utilized the animal model system of Robinette (supra), as modified in accordance with standard methodology as set forth herein.
# Three month old Wistar rats were treated for 2 weeks with 1-cm long 0.078 i.d.×0.125 o.d. Silastic tubings filled with estradiol (E2). Another group of estradiol treated animals was also given SS-14 via Alzet pump implanted into the subcutaneous fat of the back, at a dosage of 15 μg/kg/hour. At the end of the treatment period animals were sacrificed and prostates removed en bloc. A total of four animals were analyzed per group.
# Prior to fixing and embedding, prostates were weighed. Bladder and coagulating glands were removed and the remaining tissues were embedded with urethral opening down. Blocks were then sectioned at 150 μm intervals.
# The effect on total area of prostate occupied by glands was also assessed. To determine whether SS-14 would have an inhibitory effect on the glandular component of the prostate, the area of the organ occupied by glands in transverse sections, including the urethra and cut at the level at which the width of the prostate was maximal, was measured. Gland area is expressed as it relates to the total area of the organ in transverse sections.
# The effect of SS-14 on the Fibromuscular Compartment surrounding the Urethra was also evaluated. To determine whether SS-14 reduced the fibromuscular component of the urethra, tissue sections were immunostained for smooth muscle α actin (αSMA). Each prostate was cut at 5 different levels, with 150 microns between each set of sections. The results of αSMA staining are shown in the photomicrographs depicted in FIG. 8; the whole urethra is indicated by circles and the surrounding fibromuscular layer by arrows.
# mammary gland = conditions: cited from earlier work
# [4] = tested on: patients suffering from acromegaly; conditions: acromegalic patients, 1 year, cited from earlier work
# [5] = tested on: prostate of intact wild-type male mice; experiment: IGFBP-1 effect on prostate development in 4-wk-old intact wild-type male mice; type: in vivo
# Experimental: FIG. 7 depicts the effect of IGFBP-1 treatment on prostate structures in intact 28 day old male mice. After 7 d of treatment with IGFBP-1 or vehicle, prostate development in both fibromuscular and glandular compartments was analyzed. Effects on fibromuscular development (A), epithelial development (B), lumen size (C), total prostate area (D), and prostate weight (E) are shown. Effects of IGFBP-1 (compared with control) on cell division and programmed cell death are shown in representative photomicrographs (F) showing the effect of IGFBP-1 (lower row) on cell division (left) and apoptosis (right) compared with control animals (top row) Arrows point to Ki67 or TUNEL staining in stroma, and arrows point to those effects in glands. Magnification, 400×. Effects of Ki67 staining (G) for cell division (left) and effects on programmed cell death by TUNEL (right). WT, Wild type.
# Eugonadal intact mice. The effect of treatment with IGH3P-1 on prostate development in 4-wk-old intact wild-type male mice was also studied. When compared with saline-treated control animals, IGFBP-1 inhibited all fibromuscular development, epithelial development, lumen size, prostate area, and prostate weight (FIG. 7, A-E). IGFBP-1 inhibited cell division in the epithelial compartment, and increased apoptosis in both fibromuscular and epithelial compartments (FIGS. 7, F and G).
# [6] = 4-wk-old intact wild-type male mice (FIG. 7, F and G)
molecule,measurement,setting,value
"C[C@H](N)C(=O)NCC(=O)N[C@H]1CSSC[C@@H](C(=O)O)NC(=O)[C@H](CO)NC(=O)[C@H]([C@@H](C)O)NC(=O)[C@H](Cc2ccccc2)NC(=O)[C@H]([C@@H](C)O)NC(=O)[C@H](CCCCN)NC(=O)[C@H](Cc2c[nH]c3ccccc23)NC(=O)[C@H](Cc2ccccc2)NC(=O)[C@H](Cc2ccccc2)NC(=O)[C@H](CC(N)=O)NC(=O)[C@H](CCCCN)NC1=O [SS14, Somatostatin-14]",area of the Longitudinal muscle,"[1]; 28 day old male mice, controls 0.939",0.486 mm^2
same,total area of the Circular muscle,"[1]; 28 day old male mice, controls 1.322",0.438 mm^2
same,% Reduction of prostate weight,"[1]; intact 28 day old male mice, vs 28 day control",37%
same,Body weight,[2]; controls 26.9 ± 0.3,23.9 ± 0.3 gm
same,% Reduction of body weight,[2]; vs controls,11%
same,mean gland size,[3]; E2-treated Wistar rats,0.078 mm^2
same,"prostate weight of E2-treated rats, first set of experiments","[3]; vs control E2-treated rats (vehicle only), p=0.024",significant reduction
"NCCCC[C@@H]1NC(=O)[C@@H](Cc2c[nH]c3ccccc23)NC(=O)[C@H](c2ccccc2)NC(=O)[C@@H]2C[C@@H](OC(=O)NCCN)CN2C(=O)[C@H](Cc2ccccc2)NC(=O)[C@H](Cc2ccc(OCc3ccccc3)cc2)NC1=O [SOM230, pasireotide] (cyclo(F[Hyp]([CO-Ethylenediamine])[Phg][dW]KY(Bn)))",mammary development in rats,mammary gland,prevent mammary development
same,IRS-1 phosphorylation in the mammary gland,mammary gland; rats,reduction
"C[C@]12CC[C@@H]3c4ccc(O)cc4CC[C@H]3[C@@H]1CC[C@@H]2O [E2, estradiol]","Weight of prostates, individual animals","[3]; 3 month old Wistar rats, E2 2 weeks, SS-14 15 μg/kg/hour by Alzet pump, Animal #1-#4",0.570 grams and 0.580 grams and 0.532 grams and 0.630 grams
same,MEAN WEIGHT of prostates,"[3]; 3 month old Wistar rats, E2 2 weeks, SS-14 15 μg/kg/hour, second set of experiments, p=0.019",0.578 grams
same,"Ratio between the prostate area occupied by glandular elements and the whole organ area in transverse sections, individual animals",[3]; E2-treated Wistar rats,0.8467 and 0.857 and 0.8758 and 0.8596
same,"Fibromuscular Layer Area of the urethra, MEAN AREA","[3]; E2-treated Wistar rats, αSMA immunostaining",2.938 mm2
same,"Fibromuscular Layer Area of the urethra, individual animals","[3]; E2-treated Wistar rats, αSMA immunostaining, Animal #1-#4",3.412 mm2 and 1.822 mm2 and 2.369 mm2 and 4.149 mm2
same,mean gland size,[3]; E2-treated Wistar rats,0.099 mm^2
same,"Ratio between the prostate area occupied by glandular elements and the whole organ area in transverse sections, AVERAGE","[3]; E2-treated Wistar rats, p=0.028",0.860
octreotide,circulating GH and IGF-I levels,[4]; in most of the patients treated,normalization
same,prostate volume,[4],reduction
"IGFBP-1: insulin-like growth factor binding protein, inhibitor of IGF-I action (protein, UniProt P08833 26-259, looked up) Insulin-like growth …: APWQCAPCSAEKLALCPPVSASCSEVTRSAGCGCCPMCALPLGAACGVATARCARGLSCRALPGEQQPLHALTRGQGACVQESDASAPHAAEAGSPESPESTEITEEELLDNFHLMAPSEEDHSILWDAISTYDGSKALHVTNIKKWKEPCRIELYRVVESLAKAQETSGEEISKFYLPNCNKNGFYHSRQCETSMDGEAGLCWCVYPWNGKRIPGSPEIRGDPNCQIYFNVQN",apoptosis in both fibromuscular and epithelial compartments (TUNEL),[5]; [6],increased
same,cell division in the epithelial compartment (Ki67),[5]; [6],inhibited
same,"fibromuscular development, epithelial development, lumen size, prostate area, and prostate weight","[5]; 4-wk-old intact wild-type male mice, 7 d, vs saline-treated control (FIG. 7, A-E)",inhibited
